Measured values taken from patent publication US20250340590A1, “PEPTIDE HAVING ANTI-INFLAMMATORY ACTIVITY AND USE THEREOF” (CAREGEN CO., LTD., priority 2021, published 2025).

Legend:
iNos = iNos protein level by Western blot in HaCaT cells induced with LPS, TGFβ and IL-23; assay type: cell-based, human; settings: IL-23 and LPS, peptide at 5 μM and 50 μM, 24 hours, compared to group not treated with the peptide
Method: In order to further confirm the anti-inflammatory effect of the peptide treatment of the present invention in addition to the results of Experimental Example 1, HaCaT cells were treated with Th17 (type 17), which is an inflammation-inducing substance, and the expression levels of inflammation-inducing markers iNos and Cox2 were confirmed. As the inflammation-inducing substances, the cells were treated with LPS, TGFβ, and IL-23, and since iNos is an enzyme involved in the production of nitric oxide (NO), which is an inflammation-related protein induced by LPS, etc., it is possible to confirm whether inflammation is inhibited by measuring the expression levels of iNos and Cox2.
HaCaT cells were dispensed into a 24-well plate at a concentration of 3× 10^5 cells/well and cultured until the next day. The medium was replaced with serum-free medium, and after 4 hours, the cells were treated with TGFβ, IL-23, and LPS, which are Th17 type inflammation-inducing cytokines, and then with the peptide of the present invention and cultured again for another 24 hours. […] In order to perform Western blotting, the amounts of iNos and Cox2 proteins were measured using an anti-iNos antibody and an anti-Cox2 antibody (Cell Signaling Technology, USA). […]

TNFα = TNFα mRNA level by RT-PCR in TNFα-induced mouse splenocytes; assay type: cell-based; settings: TNFα 20 nM, peptide at 5 μM and 50 μM, 3 hours, compared to group not treated with the peptide
Method: In order to further confirm the anti-inflammatory effect of the peptide treatment of the present invention in addition to the results of Experimental Example <3-1>, inflammation was induced by treating mouse splenocytes with TNFα, and the expression levels of inflammatory cytokines TNFα and IL-1β, and Cox2, which is an inflammation-inducing marker, genes were confirmed. In order to induce inflammation, the cells were treated with cytokine TNFα, and since TNFα corresponds to a signaling protein associated with inflammation, IL-1β corresponds to a cytokine that promotes inflammation, and Cox2 is a protein associated with inflammation, the degree of inflammation can be confirmed by measuring the expression levels of TNFα, Cox2, and IL-1β genes.
Mouse splenocytes were dispensed into a 24-well plate at a concentration of 1× 10^7 cells/well and cultured until the next day. The medium was replaced with serum-free medium, and after 3 hours, the cells were treated with TNFα and the peptide of the present invention and then cultured for another 3 hours. In order to induce inflammation, the cells were treated with TNFα at 20 nM, and the peptide at 5 μM and 50 μM, respectively. […] After quantifying the amount of isolated RNA, cDNA was synthesized using a cDNA synthesis kit (Intron, Korea), PCR was performed using a PCR premix (Intron, Korea) and primers for TNFα, Cox2, and IL-1B. […]

IFNγ = IFNγ secretion by ELISA in mouse splenocytes induced with LPS, TGFβ and IL-23; assay type: cell-based; settings: LPS 2 μg/mL, TGFβ 20 ng/ml, IL-23 20 ng/mL, 24 hours
Source text: Inflammation was induced by treating mouse splenocytes with LPS, which is an inflammation-inducing antigen, and TGFβ and IL-23, which are inflammatory cytokines, and the secretion amounts of the inflammatory cytokines IL-17, IL-1β, and IFNγ were confirmed. The descriptions of IL-17, IL-1B, and IFNγ are the same as above.
Mouse splenocytes were dispensed into a 24-well plate at a concentration of 1×10^7 cells/well and cultured until the next day. The medium was replaced with serum-free medium, and after 4 hours, the cells were treated with LPS, TGFβ, and IL-23 and the peptide of the present invention and then cultured again for another 24 hours. In order to induce inflammation, the cells were treated with LPS at 2 μg/mL, TGFβ at 20 ng/ml, IL-23 at 20 ng/mL, and the peptide at 5 μM and 50 μM, respectively. The mouse splenocytes in the group in which inflammation was not induced due to untreatment with LPS, TGFβ, and IL-23 (NON); the negative control group in which the cells were treated with LPS, TGFβ, and IL-23 but not treated with the peptide (NC); and the group in which the cells were treated with LPS, TGFβ, and IL-23 along with the peptide of the present invention at the same concentration as above, respectively, were reacted as described above and the cell cultures were recovered. […]

TWNS [peptide of the present invention]
decreased: expression level of iNos protein (iNos) | mRNA expression level of TNFα (TNFα) | secretion amount of IFNγ (IFNγ; peptide at 5 μM) | secretion amount of IFNγ (IFNγ; peptide at 50 μM)
